According to patent US20250115620A1, “BRIDGED TRICYCLIC CARBAMOYLPYRIDONE COMPOUNDS AND USES THEREOF” (Gilead Sciences, Inc., priority 2022, published 2025):
Read-outs that look alike come from different tables or passages of the source.

Tests used:
HIV-1 (IIIB) = experiment: microbe, parasite or virus in culture; assay type: cell-based; conditions: Human immunodeficiency virus 1, IIIB, MT4, 120 h, read-out: MT4 EC50
Protocol: Compounds were tested in a high-throughput 384-well assay format for their ability to inhibit the replication of HIV-1 (IIIB) in MT-4 cells. Compounds were serially diluted (1:3) in DMSO on 384-well polypropylene plates and further diluted 200-fold into complete RPMI media (10% FBS, 1% P/S) using the Biotek Micro Flow and Labcyte ECHO acoustic dispenser. Each plate contained up to 8 test compounds, with negative (No Drug Control) and 5 μM AZT positive controls. MT-4 cells were pre-infected with 10 μL of either RPMI (mock-infected) or a fresh 1:250 dilution of HIV-1 IIIB concentrated virus stock. Infected and uninfected MT-4 cells were further diluted in complete RPMI media and added to each plate using a Micro Flow dispenser. After 5 days incubation in a humidified and temperature controlled incubator (37° C.), Cell Titer Glo (Promega) was added to the assay plates and chemiluminescence read using an Envision plate-reader.

pLAI reporter virus = experiment: microbe, parasite or virus in culture; assay type: cell-based, HIV; conditions: Human immunodeficiency virus 1, MT4, 72 h
in vitro = conditions: human; for CC50 at 5 days: uninfected MT-4 cells
[1] = HIV-1 (IIIB) in MT-4 cells, 5 days incubation, Cell Titer Glo

SMILES	EC50 (HIV-1 (IIIB); [1]) [nM]	EC50 (pLAI reporter virus; read-out: RLUC 50% HS EC50) [nM]	EC50 (pLAI reporter virus; read-out: RLUC CCM EC50) [nM]	CC50 at 5 days (in vitro) [nM]	EC50 (HIV-1 (IIIB)) [nM]	CC50 (in vitro) [nM]
COC[C@@H]1CO[C@@]2(CC[C@H](C)N3C[C@H]2n2cc(C(=O)NCc4c(F)cc(F)cc4F)c(=O)c(O)c2C3=O)O1 (single isomer, unassigned) [168 (peak 1)]	1.1	2	0.4	28900	–	–
COC[C@@H]1CO[C@]2(CC[C@H](C)N3C[C@H]2n2cc(C(=O)NCc4c(F)cc(F)cc4F)c(=O)c(O)c2C3=O)O1 (single isomer, unassigned) [168 (peak 2)]	2	16.4	0.6	37000	–	–
C[C@H]1CC[C@@]2(OC[C@@H](Cc3ccccc3)O2)[C@H]2CN1C(=O)c1c(O)c(=O)c(C(=O)NCc3c(F)cc(F)cc3F)cn12 (single isomer, unassigned) [169 (peak 1)]	4.9	10	1.4	39000	–	–
C[C@H]1CC[C@]2(OC[C@@H](Cc3ccccc3)O2)[C@H]2CN1C(=O)c1c(O)c(=O)c(C(=O)NCc3c(F)cc(F)cc3F)cn12 (single isomer, unassigned) [169 (peak 2)]	4.3	4	2	45100	–	–
CO[C@H]1CS[C@]2(CC[C@H](C)N3C[C@H]2n2cc(C(=O)NCc4c(F)cc(F)cc4F)c(=O)c(O)c2C3=O)O1 (single isomer, unassigned) [170 (peak 1)]	1.3	5	0.3	42000	–	–
CO[C@@H]1CS[C@]2(CC[C@H](C)N3C[C@H]2n2cc(C(=O)NCc4c(F)cc(F)cc4F)c(=O)c(O)c2C3=O)O1 (single isomer, unassigned) [170 (peak 2)]	1.7	2.6	0.2	42600	–	–
CO[C@H]1CS[C@@]2(CC[C@H](C)N3C[C@H]2n2cc(C(=O)NCc4c(F)cc(F)cc4F)c(=O)c(O)c2C3=O)O1 (single isomer, unassigned) [170 (peak 3)]	1.2	43.4	0.3	8240	–	–
CO[C@@H]1CS[C@@]2(CC[C@H](C)N3C[C@H]2n2cc(C(=O)NCc4c(F)cc(F)cc4F)c(=O)c(O)c2C3=O)O1 (single isomer, unassigned) [170 (peak 4)]	1.7	14.5	0.3	33100	–	–
CC1=NO[C@@]2(CC[C@H](C)N3C[C@H]2n2cc(C(=O)NCc4ccc(F)cc4F)c(=O)c(O)c2C3=O)[C@H]1F (single isomer, unassigned) [Example 27 (peak 1)]	1.3	175	0.2	33100	–	–
COCC1=NO[C@@]2(CC[C@H](C)N3C[C@H]2n2cc(C(=O)NCc4ccc(F)cc4F)c(=O)c(O)c2C3=O)C1 [Example 22, (3′S,5S,7′R)—N-(2,4-difluorobenzyl)-12′-hydroxy-3-(methoxymethyl)-3′-methyl-1′,11′-dioxo-1′,4′,5′,11′-tetrahydro-3′H,4H,7′H-spiro[isoxazole-5,6′-[2,7]methanopyrido[1,2-a][1,4]diazonine]-10′-carboxamide]	1.3	–	–	23700	–	–
C[C@H]1CC[C@]2(CNC(=O)C2)[C@H]2CN1C(=O)c1c(O)c(=O)c(C(=O)NCc3c(F)cc(F)cc3F)cn12 [Example 58, (3S,3′S,7′S)-12′-hydroxy-3′-methyl-1′,5,11′-trioxo-N-(2,4,6-trifluorobenzyl)-1′,4′,5′,11′-tetrahydro-3′H,7′H-spiro[pyrrolidine-3,6′-[2,7]methanopyrido[1,2-a][1,4]diazonine]-10′-carboxamide]	77.4	–	–	≥ 50000	–	–
C[C@H]1CC[C@@]2(CNC(=O)O2)[C@H]2CN1C(=O)c1c(O)c(=O)c(C(=O)NCc3c(F)cc(F)cc3F)cn12 [Example 59, (3′S,5R,7′R)-12′-hydroxy-3′-methyl-1′,2,11′-trioxo-N-(2,4,6-trifluorobenzyl)-1′,4′,5′,11′-tetrahydro-3′H,7′H-spiro[oxazolidine-5,6′-[2,7]methanopyrido[1,2-a][1,4]diazonine]-10′-carboxamide]	51.4	–	–	≥ 50000	–	–
CC1=NOC2(CC[C@H](C)N3C[C@H]2n2cc(C(=O)NCc4ccc(F)cc4F)c(=O)c(O)c2C3=O)N1N(C)C (stereo partly drawn) [Example 95, (3′S,7′R)—N-(2,4-difluorobenzyl)-4-(dimethylamino)-12′-hydroxy-3,3′-dimethyl-1′,11′-dioxo-1′,4′,5′,11′-tetrahydro-3′H,4H,7′H-spiro[[1,2,4]oxadiazole-5,6′-[2,7]methanopyrido[1,2-a][1,4]diazonine]-10′-carboxamide]	–	–	–	–	0.6	24100
C[C@H]1OC[C@]2(CC[C@H](C)N3C[C@H]2n2cc(C(=O)NCc4c(F)cc(F)cc4F)c(=O)c(O)c2C3=O)O1 [Example 132, (2S,3′S,4R,7′R)-12′-hydroxy-2,3′-dimethyl-1′,11′-dioxo-N-(2,4,6-trifluorobenzyl)-1′,4′,5′,11′-tetrahydro-3′H,7′H-spiro[[1,3]dioxolane-4,6′-[2,7]methanopyrido[1,2-a][1,4]diazonine]-10′-carboxamide]	1.4	–	–	30300	–	–
CC1=NO[C@@]2(CC[C@H](C)N3C[C@H]2n2cc(C(=O)NCc4c(F)cc(F)cc4F)c(=O)c(O)c2C3=O)S1 [Example 146, (3′S,5S,7′R)-12′-hydroxy-3,3′-dimethyl-1′,11′-dioxo-N-(2,4,6-trifluorobenzyl)-1′,4′,5′,11′-tetrahydro-3′H,7′H-spiro[[1,4,2]oxathiazole-5,6′-[2,7]methanopyrido[1,2-a][1,4]diazonine]-10′-carboxamide]	–	–	–	–	1.3	16900
CC1=NO[C@@]2(CC[C@H](C)N3C[C@H]2n2cc(C(=O)NCc4ncc(F)c(Cl)c4F)c(=O)c(O)c2C3=O)C1 [Example 150, (3′S,5S,7′R)—N-((4-chloro-3,5-difluoropyridin-2-yl)methyl)-12′-hydroxy-3,3′-dimethyl-1′,11′-dioxo-1′,4′,5′,11′-tetrahydro-3′H,4H,7′H-spiro[isoxazole-5,6′-[2,7]methanopyrido[1,2-a][1,4]diazonine]-10′-carboxamide]	–	–	–	27000	2.1	–
CC1=NO[C@@]2(CC[C@H](C)N3C[C@H]2n2cc(-c4nnc(Cc5c(F)cc(F)cc5F)s4)c(=O)c(O)c2C3=O)C1 [Example 152, (3′S,5S,7′R)-12′-hydroxy-3,3′-dimethyl-10′-(5-(2,4,6-trifluorobenzyl)-1,3,4-thiadiazol-2-yl)-4′,5′-dihydro-3′H,4H,7′H-spiro[isoxazole-5,6′-[2,7]methanopyrido[1,2-a][1,4]diazonine]-1′,11′-dione]	–	–	–	14200	4.2	–
CCn1c(CN2O[C@@]3(CC[C@H](C)N4C[C@H]3n3cc(C(=O)NCc5c(F)cc(F)cc5F)c(=O)c(O)c3C4=O)CC2=O)nc2ccccc21 [Example 164, (3′S,5S,7′R)-2-((1-ethyl-1H-benzo[d]imidazol-2-yl)methyl)-12′-hydroxy-3′-methyl-1′,3,11′-trioxo-N-(2,4,6-trifluorobenzyl)-1′,4′,5′,11′-tetrahydro-3′H,7′H-spiro[isoxazolidine-5,6′-[2,7]methanopyrido[1,2-a][1,4]diazonine]-10′-carboxamide]	3	–	–	45700	–	–
